Laboratory results: patent US20240247015A1, “PHOSPHORUS DERIVATIVES AS NOVEL SOS1 INHIBITORS” (BAYER AKTIENGESELLSCHAFT, priority 2021, published 2024)

biological target: interaction of human SOS1 (SOS1) with human K-RasG12C (Homo sapiens (Human), UniProt Q07889); experiment: Biochemical assay: hK-RasG12C interaction assay with hSOS1 (HTRF); assay type: binding; conditions: GST-hK-RasG12C with His-hSOS1, 60 min incubation at 20° C., mean, read-out: K-RasG12C - SOS interaction assay IC50 (mean)
In short: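 Compounds, duplicates at 11 concentrations from 0.073 nM to 20 µM, were preincubated 2 min with 10 nM GST-hK-RasG12C, then 20 nM His-hSOS1 was added, all at 20 °C. After 60 min, 665/620 nm HTRF ratio normalized to DMSO and SOS1-free controls; IC50 by 4-parameter fit.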

interaction of human SOS1 (SOS1) with human K-RasG12C, sequence (Q07889 564-1049 limits assumed): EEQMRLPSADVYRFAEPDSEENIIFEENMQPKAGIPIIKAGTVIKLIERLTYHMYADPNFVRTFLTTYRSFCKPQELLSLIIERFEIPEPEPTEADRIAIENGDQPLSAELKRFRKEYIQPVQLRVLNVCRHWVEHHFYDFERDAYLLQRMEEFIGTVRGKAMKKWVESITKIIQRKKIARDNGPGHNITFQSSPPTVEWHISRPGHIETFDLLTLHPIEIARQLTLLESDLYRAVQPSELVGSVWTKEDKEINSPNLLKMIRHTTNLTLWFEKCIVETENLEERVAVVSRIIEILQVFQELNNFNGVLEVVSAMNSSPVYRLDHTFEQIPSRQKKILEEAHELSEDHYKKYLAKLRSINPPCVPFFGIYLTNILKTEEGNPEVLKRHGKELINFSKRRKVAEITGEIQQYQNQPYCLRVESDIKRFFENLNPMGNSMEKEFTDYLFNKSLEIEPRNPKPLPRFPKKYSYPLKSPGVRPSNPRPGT

IC50 [nM] | SMILES
16.1 | CCP(C)(=O)c1cc2c(N[C@H](C)c3cccc(C(F)(F)CO)c3F)nc(C)nc2cn1 (stereo partly drawn) [Example 130, 2-{3-[(1R)-1-{{6-[ethyl(methyl)phosphoryl]-2-methylpyrido[3,4-d]pyrimidin-4-yl}amino)ethyl]-2-fluorophenyl}-2,2-difluoroethan-1-ol]
6.01 | [2H]C([2H])([2H])[C@]([2H])(Nc1nc(C)nc2cnc(P3(=O)CCN(C(C)=O)CC3)cc12)c1cccc(C(F)(F)F)c1C [Example 138, 1-acetyl-4-(2-methyl-4-{[(1S)-1-[2-methyl-3-(trifluoromethyl)phenyl](^2H4)ethyl]amino}pyrido[3,4-d]pyrimidin-6-yl)-1,4lambda^5-azaphosphinan-4-one]
5.4 | COCC(F)(F)c1cccc([C@@H](C)Nc2nc(C)nc3cnc(P4(=O)CCN(C(C)=O)CC4)cc23)c1F [Example 139, 1-acetyl-4-[4-({(1R)-1-[3-(1,1-difluoro-2-methoxyethyl)-2-fluorophenyl]ethyl}amino)-2-methylpyrido[3,4-d]pyrimidin-6-yl]-1,4lambda^5-azaphosphinan-4-one]
11.4 | COC(C)(C)C(F)(F)c1cccc([C@@H](C)Nc2nc(C)nc3cnc(P4(=O)CCN(C(C)=O)CC4)cc23)c1F [Example 140, 1-acetyl-4-[4-({(1R)-1-[3-(1,1-difluoro-2-methoxy-2-methylpropyl)-2-fluorophenyl]ethyl}amino)-2-methylpyrido[3,4-d]pyrimidin-6-yl]-1,4lambda^5-azaphosphinan-4-one]
12.8 | CC(=O)N1CCP(=O)(c2cc3c(N[C@H](C)c4cccc(C(C)(F)F)c4)nc(C)nc3cn2)CC1 [Example 141, 1-acetyl-4-[4-({(1R)-1-[3-(1,1-difluoroethyl)phenyl]ethyl}amino)-2-methylpyrido[3,4-d]pyrimidin-6-yl]-1,4lambda^5-azaphosphinan-4-one]
6.3 | CC(=O)N1CCP(=O)(c2cc3c(N[C@H](C)c4cccc(C(F)(F)F)c4F)nc(C)nc3cn2)CC1 [Example 142, 1-acetyl-4-[4-{{(1R)-1-[2-fluoro-3-(trifluoromethyl)phenyl]ethyl}amino)-2-methylpyrido[3,4-d]pyrimidin-6-yl]-1,4lambda^5-azaphosphinan-4-one]
12.6 | COCC(F)(F)c1cccc([C@@H](C)Nc2nc(C)nc3cnc(P4(=O)CCN(C(C)=O)CC4)cc23)c1 [Example 143, 1-acetyl-4-[4-({(1R)-1-[3-(1,1-difluoro-2-methoxyethyl)phenyl]ethyl}amino)-2-methylpyrido[3,4-d]pyrimidin-6-yl]-1,4lambda^5-azaphosphinan-4-one]
1.97 | COc1nc2nc(C)nc(N[C@H](C)c3cccc(C(F)(F)F)c3C)c2cc1P1(=O)CCN(C(C)=O)CC1 [Example 144, 1-acetyl-4-[7-methoxy-2-methyl-4-({(1R)-1-[2-methyl-3-(trifluoromethyl)phenyl]ethyl}amino)pyrido[2,3-d]pyrimidin-6-yl]-1,4lambda^5-azaphosphinan-4-one]
4.35 | CC(=O)N1CCP(=O)(c2cc3c(N[C@H](C)c4cccc(C(F)(F)F)c4C)nc(C)nc3nc2C)CC1 [Example 145, 1-acetyl-4-[2,7-dimethyl-4-({(1R)-1-[2-methyl-3-(trifluoromethyl)phenyl]ethyl}amino)pyrido[2,3-d]pyrimidin-6-yl]-1,4lambda^5-azaphosphinan-4-one]
81 | CC(=O)N1CCP(=O)(c2cc3c(N[C@H](C)c4cccc(C(F)(F)F)c4C)nc(C)nc3c(C)n2)CC1 [Example 146, (R)-1-(4-(2,8-dimethyl-4-((1-(2-methyl-3-(trifluoromethyl)phenyl)ethyl)amino)pyrido[3,4-d]pyrimidin-6-yl)-4-oxido-1,4-azaphosphinan-1-yl)ethan-1-one]
4.51 | CC(=O)N1CCP(=O)(c2cnc3nc(C)nc(N[C@H](C)c4cccc(C(F)(F)F)c4C)c3c2)CC1 [Example 147, 1-acetyl-4-[2-methyl-4-({(1R)-1-[2-methyl-3-(trifluoromethyl)phenyl]ethyl}amino)pyrido[2,3-d]pyrimidin-6-yl]-1,4lambda^5-azaphosphinan-4-one]
18 | CO[C@@H](C)C(=O)N1CCP(=O)(c2cc3c(N[C@H](C)c4cccc(C(F)F)c4F)nc(C)nc3cn2)CC1 [Example 149, 4-[4-{{(1R)-1-[3-(difluoromethyl)-2-fluorophenyl]ethyl}amino)-2-methylpyrido[3,4-d]pyrimidin-6-yl]-1-[(2S)-2-methoxypropanoyl]-1,4lambda^5-azaphosphinan-4-one]
4.76 | Cc1nc(N[C@H](C)c2cccc(C(F)F)c2F)c2cc(P3(=O)CCN(C(=O)[C@@H](C)O)CC3)ncc2n1 [Example 150, 4-[4-{{(1R)-1-[3-(difluoromethyl)-2-fluorophenyl]ethyl}amino)-2-methylpyrido[3,4-d]pyrimidin-6-yl]-1-[(2R)-2-hydroxypropanoyl]-1,4lambda^5-azaphosphinan-4-one]
12.2 | Cc1nc(N[C@H](C)c2cccc(C(F)F)c2F)c2cc(P3(=O)CCN(C(=O)C4(F)CC4)CC3)ncc2n1 [Example 151, 4-[4-{{(1R)-1-[3-(difluoromethyl)-2-fluorophenyl]ethyl}amino)-2-methylpyrido[3,4-d]pyrimidin-6-yl]-1-(1-fluorocyclopropane-1-carbonyl)-1,4lambda^5-azaphosphinan-4-one]
12.7 | Cc1nc(N[C@H](C)c2cccc(C(F)F)c2F)c2cc(P3(=O)CCN(C(=O)C4(C#N)CC4)CC3)ncc2n1 [Example 152, 1-{4-[4-{{(1R)-1-[3-(difluoromethyl)-2-fluorophenyl]ethyl}amino)-2-methylpyrido[3,4-d]pyrimidin-6-yl]-4-oxo-1,4lambda5-azaphosphinane-1-carbonyl}cyclopropane-1-carbonitrile]
7.4 | Cc1nc(N[C@H](C)c2cccc(C(F)F)c2F)c2cc(P3(=O)CCN(C(=O)C(C)C)CC3)ncc2n1 [Example 153, 4-[4-({(1R)-1-[3-(difluoromethyl)-2-fluorophenyl]ethyl}amino)-2-methylpyrido[3,4-d]pyrimidin-6-yl]-1-(2-methylpropanoyl)-1,4lambda^5-azaphosphinan-4-one]
6.15 | COCC(=O)N1CCP(=O)(c2cc3c(N[C@H](C)c4cccc(C(F)F)c4F)nc(C)nc3cn2)CC1 [Example 154, 4-[4-{{(1R)-1-[3-(difluoromethyl)-2-fluorophenyl]ethyl}amino)-2-methylpyrido[3,4-d]pyrimidin-6-yl]-1-(methoxyacetyl)-1,4lambda^5-azaphosphinan-4-one]
11.1 | CO[C@H](C)C(=O)N1CCP(=O)(c2cc3c(N[C@H](C)c4cccc(C(F)F)c4F)nc(C)nc3cn2)CC1 [Example 155, 4-[4-{{(1R)-1-[3-(difluoromethyl)-2-fluorophenyl]ethyl}amino)-2-methylpyrido[3,4-d]pyrimidin-6-yl]-1-[(2R)-2-methoxypropanoyl]-1,4lambda^5-azaphosphinan-4-one]
11.4 | Cc1nc(N[C@H](C)c2cccc(C(F)F)c2F)c2cc(P3(=O)CCN(C(=O)C4(O)CC4)CC3)ncc2n1 [Example 156, 4-[4-{{(1R)-1-[3-(difluoromethyl)-2-fluorophenyl]ethyl}amino)-2-methylpyrido[3,4-d]pyrimidin-6-yl]-1-(1-hydroxycyclopropane-1-carbonyl)-1,4lambda^5-azaphosphinan-4-one]
